Results from ChEMBL document CHEMBL4842347, “Structure-activity relationship and biochemical evaluation of novel fibroblast activation protein and prolyl endopeptidase inhibitors with α-ketoamide warheads” (Eur J Med Chem, 2021).
The source made the active and inactive calls. No cut-off for these calls is given here.

Experiments:
[1] = Metabolic stability in human plasma incubated for 2 hrs by LC/MS-MS analysis; type: ADME, cell-free
[2] = tested on: HeLa; experiment: Cytotoxicity against human HeLa cells assessed as reduction in cell viability incubated for 72 hrs measured by […]-based colorimetric assay; type: functional
[3] = tested on: HepG2; experiment: Cytotoxicity against human HepG2 cells assessed as reduction in cell viability incubated for 72 hrs measured by […]-based colorimetric assay; type: functional
[4] = tested on: HL-60; experiment: Cytotoxicity against human HL-60 cells assessed as reduction in cell viability incubated for 72 hrs measured by […]-based colorimetric assay; type: functional
[5] = Drug degradation in mouse liver microsomes measured up to 1 min incubated for 2 hrs by LC/MS-MS analysis; type: ADME, Microsome
[6] = tested on: CCRF-CEM; experiment: Cytotoxicity against human CCRF-CEM cells assessed as reduction in cell viability incubated for 72 hrs measured by […]-based colorimetric assay; type: functional
[7] = Inhibition of PREP (unknown origin) using fluorogenic substrate by spectrometric assay; set-up: species or system Homo sapiens
[8] = Drug degradation in human plasma measured up to 1 min incubated for 2 hrs by LC/MS-MS analysis; type: ADME, cell-free
[9] = target: Dipeptidyl peptidase 4 (Homo sapiens, UniProt P27487); experiment: Inhibition of SF-tagged DPP4 (unknown origin) expressed in Drosophila S2 cells using fluorogenic substrate by spectrometric analysis; type: cell-based
Dipeptidyl peptidase 4, sequence (P27487 whole entry): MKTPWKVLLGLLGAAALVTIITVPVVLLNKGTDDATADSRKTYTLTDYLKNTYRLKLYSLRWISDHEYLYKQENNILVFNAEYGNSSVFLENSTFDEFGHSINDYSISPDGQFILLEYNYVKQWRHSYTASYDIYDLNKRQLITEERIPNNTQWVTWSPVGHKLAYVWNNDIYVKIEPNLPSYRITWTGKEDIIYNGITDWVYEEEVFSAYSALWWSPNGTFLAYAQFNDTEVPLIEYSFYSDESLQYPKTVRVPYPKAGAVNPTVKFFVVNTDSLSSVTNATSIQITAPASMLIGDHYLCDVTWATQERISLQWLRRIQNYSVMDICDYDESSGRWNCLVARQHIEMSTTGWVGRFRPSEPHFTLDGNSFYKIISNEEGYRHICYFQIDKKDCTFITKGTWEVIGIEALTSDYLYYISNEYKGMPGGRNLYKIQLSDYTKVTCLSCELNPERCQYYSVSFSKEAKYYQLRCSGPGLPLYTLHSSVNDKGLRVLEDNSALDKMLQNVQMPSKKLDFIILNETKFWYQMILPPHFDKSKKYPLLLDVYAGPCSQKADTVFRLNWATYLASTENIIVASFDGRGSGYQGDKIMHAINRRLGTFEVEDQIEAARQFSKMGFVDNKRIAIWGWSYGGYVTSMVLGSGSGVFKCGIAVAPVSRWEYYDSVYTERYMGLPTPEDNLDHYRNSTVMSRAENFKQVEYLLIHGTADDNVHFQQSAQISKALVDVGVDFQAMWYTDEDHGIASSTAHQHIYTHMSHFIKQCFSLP

Compound	Stabilty [1]	Activity [2]	Activity [3]	Activity [4]	Stabilty [5]	Activity [6]	IC50 [7] [nM]	Stabilty [8]	IC50 [9] [nM]
O=C(NCc1ccccc1)C(=O)[C@@H]1CCCN1C(=O)CNC(=O)c1ccnc2ccccc12	Stable	inactive	inactive	inactive	Unstable	inactive	–	–	–
COc1ccc(CNC(=O)C(=O)[C@@H]2CCCN2C(=O)CNC(=O)c2ccnc3ccccc23)cc1OC	Stable	inactive	inactive	inactive	–	inactive	0.24	–	–
COC(=O)[C@H](CCC(=O)OCc1ccccc1)NC(=O)CNC(=O)C(=O)[C@@H]1CCCN1C(=O)CNC(=O)c1ccnc2ccccc12	Stable	inactive	inactive	inactive	Unstable	inactive	–	Unstable	–
COc1ccc(CCNC(=O)C(=O)[C@@H]2CCCN2C(=O)CNC(=O)c2ccnc3ccccc23)cc1OC	Stable	inactive	inactive	inactive	Unstable	inactive	0.43	–	–
COC(=O)[C@H](Cc1ccccc1)NC(=O)CNC(=O)C(=O)[C@@H]1CCCN1C(=O)CNC(=O)c1ccnc2ccccc12	Stable	inactive	inactive	inactive	Unstable	inactive	0.36	Unstable	> 4000
